Test results reported in ChEMBL document CHEMBL1159081, “Anti-influenza diarylheptanoids from the bark of Alnus japonica” (Bioorg Med Chem Lett, 2010).

Key:
Influenza A virus = experiment: Antiviral activity against Influenza A virus (A/Korea/KBNP-0028/2000(H9N2)) infected in chicken egg after 5 days by hemagglutinination assay; assay type: functional, organism-based; conditions: 120 h
[1] = Cytotoxicity against CEF cells by MTT assay; assay type: cell-based, Gallus gallus; conditions: chicken
[2] = Selectivity index, ratio of CC50 for CEF cells to EC50 for Influenza A virus (A/Korea/KBNP-0028/2000(H9N2)); assay type: toxicity, cell-based; conditions: chicken

SMILES	EC50 (Influenza A virus) [µM]	CC50 [1] [µM]	selectivity ratio [2]
O=C(CCc1ccc(O)cc1)C[C@H](CCc1cccc(O)c1)O[C@@H]1OC[C@@H](O)[C@H](O)[C@H]1O	56.1	> 560	> 10
O=C(CCc1ccc(O)c(O)c1)C[C@H](CCc1cccc(O)c1)O[C@@H]1OC[C@@H](O)[C@H](O)[C@H]1O [ALNUSIDE A]	> 350	> 500	
O=C(/C=C/CCc1ccc(O)c(O)c1)CCc1ccc(O)c(O)c1 [DEHYDROHIRSUTANONOL]	> 350	> 500	
O=C(CCc1ccc(O)c(O)c1)C[C@@H](O)CCc1ccc(O)c(O)c1 [HIRSUTANONOL]	> 350	> 500	
O=C(CCc1ccc(O)c(O)c1)C[C@H](CCc1ccc(O)c(O)c1)O[C@@H]1OC[C@@H](O)[C@H](O)[C@H]1OC(=O)/C=C/c1ccc(O)cc1 [OREGONOYL A]	> 350	> 500	
COc1cc(/C=C/C(=O)O[C@H]2[C@H](O[C@@H](CCc3ccc(O)c(O)c3)CC(=O)CCc3ccc(O)c(O)c3)OC[C@@H](O)[C@@H]2O)ccc1O [OREGONOYL B]	> 350	> 500	
CC(=O)N[C@H]1[C@H]([C@H](O)[C@H](O)CO)OC(C(=O)O)=C[C@@H]1N=C(N)N [ZANAMIVIR]		> 753	> 44
